Assay results published in ChEMBL document CHEMBL1153958, “Design and optimization of selective serotonin re-uptake inhibitors with high synthetic accessibility. Part 1” (Bioorg Med Chem Lett, 2009).

Columns and labels:
[1] = target: Voltage-gated inwardly rectifying potassium channel KCNH2 (Homo sapiens, UniProt Q12809); assay: Displacement of [3H]dofetilide from human ERG expressed in HEK293 cells
[2] = target: Sodium-dependent noradrenaline transporter (Homo sapiens, UniProt P23975); assay: Inhibition of radiolabeled noradrenaline reuptake at human NET expressed in HEK293 cells; format: cell-based
[3] = target: Sodium-dependent serotonin transporter (Homo sapiens, UniProt P31645); assay: Inhibition of radiolabeled serotonin reuptake at human SERT expressed in HEK293 cells; format: cell-based
[4] = target: Sodium-dependent dopamine transporter (Homo sapiens, UniProt Q01959); assay: Inhibition of radiolabeled dopamine reuptake at human DAT expressed in HEK293 cells; format: cell-based
[5] = target: T1, 5-hydroxytryptamine receptor 3A (Homo sapiens, UniProt P46098); assay: Displacement of [3H]granisetron from human 5HT3 receptor expressed in HEK293 cells; format: cell-based
T1 sequence (P46098 whole entry): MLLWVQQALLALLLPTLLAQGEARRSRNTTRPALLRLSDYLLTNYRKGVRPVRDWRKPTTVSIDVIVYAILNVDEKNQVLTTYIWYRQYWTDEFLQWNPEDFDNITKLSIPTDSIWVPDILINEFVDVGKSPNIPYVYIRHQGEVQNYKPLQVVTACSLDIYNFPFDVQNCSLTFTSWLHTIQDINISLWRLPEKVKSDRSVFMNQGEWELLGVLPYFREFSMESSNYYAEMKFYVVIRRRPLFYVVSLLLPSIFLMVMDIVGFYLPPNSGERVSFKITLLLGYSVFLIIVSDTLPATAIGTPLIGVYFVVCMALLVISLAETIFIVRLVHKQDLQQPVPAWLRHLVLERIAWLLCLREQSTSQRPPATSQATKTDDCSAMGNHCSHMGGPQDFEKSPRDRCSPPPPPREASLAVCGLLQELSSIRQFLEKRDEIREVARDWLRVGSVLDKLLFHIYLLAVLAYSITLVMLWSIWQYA

Sodium-dependent dopamine transporter, sequence (Q01959 whole entry): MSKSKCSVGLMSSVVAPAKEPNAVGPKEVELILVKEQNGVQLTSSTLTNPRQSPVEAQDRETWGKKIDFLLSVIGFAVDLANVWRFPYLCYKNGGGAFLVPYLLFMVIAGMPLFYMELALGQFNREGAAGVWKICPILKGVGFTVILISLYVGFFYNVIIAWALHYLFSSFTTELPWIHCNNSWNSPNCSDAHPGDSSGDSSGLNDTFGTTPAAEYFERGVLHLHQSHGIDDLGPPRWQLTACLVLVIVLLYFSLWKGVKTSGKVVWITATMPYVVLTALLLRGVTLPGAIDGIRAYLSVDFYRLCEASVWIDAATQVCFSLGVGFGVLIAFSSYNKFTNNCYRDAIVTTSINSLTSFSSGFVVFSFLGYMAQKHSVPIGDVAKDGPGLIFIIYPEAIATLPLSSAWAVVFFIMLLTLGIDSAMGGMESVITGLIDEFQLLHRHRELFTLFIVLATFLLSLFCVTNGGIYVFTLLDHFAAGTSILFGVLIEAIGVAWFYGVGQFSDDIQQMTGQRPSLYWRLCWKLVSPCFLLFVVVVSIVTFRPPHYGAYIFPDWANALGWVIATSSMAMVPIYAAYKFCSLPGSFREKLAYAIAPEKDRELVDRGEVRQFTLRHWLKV
Sodium-dependent serotonin transporter, sequence (P31645 whole entry): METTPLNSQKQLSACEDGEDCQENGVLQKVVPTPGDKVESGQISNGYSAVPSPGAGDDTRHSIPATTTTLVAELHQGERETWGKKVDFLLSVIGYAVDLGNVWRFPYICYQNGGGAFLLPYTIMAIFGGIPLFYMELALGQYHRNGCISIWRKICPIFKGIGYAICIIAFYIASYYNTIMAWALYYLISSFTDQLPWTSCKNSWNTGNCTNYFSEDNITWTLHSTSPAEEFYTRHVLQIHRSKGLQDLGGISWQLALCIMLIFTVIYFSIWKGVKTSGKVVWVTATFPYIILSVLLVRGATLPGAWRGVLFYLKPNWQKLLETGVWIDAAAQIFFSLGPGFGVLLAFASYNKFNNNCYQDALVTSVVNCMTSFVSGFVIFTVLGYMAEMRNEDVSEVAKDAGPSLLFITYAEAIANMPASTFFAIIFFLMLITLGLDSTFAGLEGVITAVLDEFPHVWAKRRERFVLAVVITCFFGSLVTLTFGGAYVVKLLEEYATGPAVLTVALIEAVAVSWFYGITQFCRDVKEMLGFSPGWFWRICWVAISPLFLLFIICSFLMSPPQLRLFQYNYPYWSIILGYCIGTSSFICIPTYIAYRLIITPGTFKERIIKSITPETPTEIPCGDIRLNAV
Voltage-gated inwardly rectifying potassium channel KCNH2, sequence (Q12809 whole entry): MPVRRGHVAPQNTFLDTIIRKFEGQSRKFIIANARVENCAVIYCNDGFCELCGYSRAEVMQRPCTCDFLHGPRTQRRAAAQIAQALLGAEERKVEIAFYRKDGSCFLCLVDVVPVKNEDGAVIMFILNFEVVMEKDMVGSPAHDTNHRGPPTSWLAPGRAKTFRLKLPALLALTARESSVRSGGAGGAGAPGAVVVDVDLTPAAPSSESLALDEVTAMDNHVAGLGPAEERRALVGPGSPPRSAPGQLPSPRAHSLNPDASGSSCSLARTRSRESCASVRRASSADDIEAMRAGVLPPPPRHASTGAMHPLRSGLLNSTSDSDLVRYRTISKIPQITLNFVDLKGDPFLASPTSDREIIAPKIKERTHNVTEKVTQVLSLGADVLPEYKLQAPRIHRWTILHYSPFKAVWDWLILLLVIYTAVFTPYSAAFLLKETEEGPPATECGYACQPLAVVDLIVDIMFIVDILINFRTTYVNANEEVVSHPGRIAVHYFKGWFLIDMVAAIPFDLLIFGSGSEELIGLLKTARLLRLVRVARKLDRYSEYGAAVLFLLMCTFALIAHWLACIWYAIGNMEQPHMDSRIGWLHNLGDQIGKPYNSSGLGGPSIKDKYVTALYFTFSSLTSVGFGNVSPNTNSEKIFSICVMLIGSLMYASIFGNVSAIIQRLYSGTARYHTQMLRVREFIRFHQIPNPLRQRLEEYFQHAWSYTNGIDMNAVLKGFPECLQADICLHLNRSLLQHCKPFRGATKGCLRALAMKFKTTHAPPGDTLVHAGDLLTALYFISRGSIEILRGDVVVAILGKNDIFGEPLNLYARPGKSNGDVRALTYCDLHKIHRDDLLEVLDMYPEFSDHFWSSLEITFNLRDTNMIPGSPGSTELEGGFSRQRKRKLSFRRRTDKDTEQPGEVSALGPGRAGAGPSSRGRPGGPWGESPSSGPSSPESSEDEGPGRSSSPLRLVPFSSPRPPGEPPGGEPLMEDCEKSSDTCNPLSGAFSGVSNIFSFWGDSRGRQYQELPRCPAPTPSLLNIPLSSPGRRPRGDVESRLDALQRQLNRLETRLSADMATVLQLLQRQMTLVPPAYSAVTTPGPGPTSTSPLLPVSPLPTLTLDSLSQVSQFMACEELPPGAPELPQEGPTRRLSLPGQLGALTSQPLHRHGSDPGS
Sodium-dependent noradrenaline transporter, sequence (P23975 whole entry): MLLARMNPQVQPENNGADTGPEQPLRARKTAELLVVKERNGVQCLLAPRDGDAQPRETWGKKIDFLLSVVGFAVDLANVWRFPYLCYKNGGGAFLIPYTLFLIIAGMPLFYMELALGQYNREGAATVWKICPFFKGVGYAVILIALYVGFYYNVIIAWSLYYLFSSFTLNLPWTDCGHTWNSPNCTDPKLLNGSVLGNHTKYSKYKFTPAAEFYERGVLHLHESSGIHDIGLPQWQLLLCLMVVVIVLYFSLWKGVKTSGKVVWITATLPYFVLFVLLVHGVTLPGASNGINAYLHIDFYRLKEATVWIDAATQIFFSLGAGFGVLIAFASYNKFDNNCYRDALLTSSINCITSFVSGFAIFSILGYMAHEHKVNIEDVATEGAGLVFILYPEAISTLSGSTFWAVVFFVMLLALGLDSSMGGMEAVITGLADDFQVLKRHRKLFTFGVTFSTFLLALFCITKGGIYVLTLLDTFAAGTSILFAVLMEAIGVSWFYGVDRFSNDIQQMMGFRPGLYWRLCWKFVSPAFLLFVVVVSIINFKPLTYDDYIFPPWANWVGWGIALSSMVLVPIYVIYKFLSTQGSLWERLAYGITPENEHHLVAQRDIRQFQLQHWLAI

Structure (SMILES) | IC50 [2] [nM] | IC50 [3] [nM] | IC50 [4] [nM] | Ki [5] [nM] | Ki [1] [nM]
Cc1c(CCN2CCNCC2)ccc2cc(F)ccc12 | 8400 | 4 | > 31000 | – | 10100
CC(C)CN(Cc1ccc2ccccc2c1)[C@@H]1CCNC1 | 80 | 5 | 66 | – | –
Fc1ccc2cc(CO[C@@H]3CCNC3)ccc2c1 | 10600 | 4 | 2100 | – | 10300
CN(Cc1ccc2ccccc2c1)[C@H]1CCNC1 | 5400 | 13 | 7700 | – | > 5000
CN([C@@H]1CCNC1)S(=O)(=O)c1ccc2ccccc2c1 | 3000 | 138 | – | – | –
c1ccc2cc(CCN3CCNCC3)ccc2c1 | – | 88 | – | – | –
c1ccc2cc(COC3CCNCC3)ccc2c1 [LITOXETINE] | 6500 | 6 | 1300 | – | –
CCN(C1CCNCC1)S(=O)(=O)c1ccc2ccccc2c1 | > 10000 | > 400 | > 10000 | – | –
N#Cc1ccc2cc(OC[C@@H]3CCNC3)ccc2c1 | 772 | 42 | – | – | –
CCCCN(C1CCNCC1)S(=O)(=O)c1ccc2ccccc2c1 | 40000 | 14 | 19000 | – | 716
c1ccc2cc(CO[C@@H]3CCNC3)ccc2c1 | 1200 | 20 | 3800 | – | 16400

More lines, main results first:

IC50 [2] [nM] | IC50 [3] [nM] | IC50 [4] [nM] | Ki [5] [nM] | Structure (SMILES) | Ki [1] [nM]
4400 | 3 | 8800 | 404 | N#Cc1ccc2ccc(OCC3CCNCC3)cc2c1 | 3500
1800 | 8 | > 7000 | 311 | c1ccc2cc(OCC3CCNCC3)ccc2c1 | –
10500 | 11 | 24000 | – | Fc1ccc2cc(CCN3CCNCC3)ccc2c1 | 8500
3000 | 119 | 3000 | – | CN(Cc1ccc2ccccc2c1)[C@@H]1CCNC1 | –
– | > 400 | – | – | CN([C@H]1CCNC1)S(=O)(=O)c1ccc2ccccc2c1 | –
6800 | 3 | 861 | – | N#Cc1ccc2cc(CO[C@H]3CCNC3)ccc2c1 | 4500
827 | 5 | – | > 10000 | COCC(Oc1ccc2ccccc2c1)C1CCNCC1 (racemic) | –
2600 | 30 | > 30000 | – | CCN([C@@H]1CCNC1)S(=O)(=O)c1ccc2ccccc2c1 | –
200 | 37 | – | – | N#Cc1ccc2cc(OC[C@H]3CCNC3)ccc2c1 | –
5600 | 16 | > 30000 | – | CCCCN([C@H]1CCNC1)S(=O)(=O)c1ccc2ccccc2c1 | 412
80 | 0.3 | 88 | – | CCCCN(Cc1ccc2ccccc2c1)[C@H]1CCNC1 | –
1900 | 15 | 6000 | – | N#Cc1ccc2cc(OCC3CCNCC3)ccc2c1 | –
1500 | 2 | 210 | – | c1ccc2cc(CN(C3CCC3)C3CCNCC3)ccc2c1 | –
2900 | 23 | 15000 | – | c1ccc2cc(CO[C@H]3CCNC3)ccc2c1 | 15700
1400 | 25 | 1000 | – | c1ccc2cc(OCC3CCNC3)ccc2c1 (racemic) | > 5500
